Measurements published in patent publication US11744889B2, “Skin microenvironment targeted delivery for promoting immune and other responses” (University of Pittsburgh—Of the Commonwealth System of …, priority 2016, dated 2023).
Entries after “also recorded” stand apart in the source; their conditions may differ.

How the values were obtained:
epidermal cells = details: 5 mg/g of CMC, about 140 μg per array; 72 hours of exposure
Method: Cytoxan® was integrated at a concentration of 5 mg/g of CMC, enabling delivery of approximately about 140 μg per array. […] Living human skin organ cultures were used to assess the cytotoxicity of Cytoxan®. Cytoxan® was delivered by application of arrays to skin explants as we previously described. Arrays and residual material were removed 5 minutes after application, and after 72 hours of exposure, culture living skin explants were cryo-sectioned and fixed.

[1] = MNA DNBS dose response, ear thickness increase and histology; assay type: in vivo, mouse; details: MNAs with 25 ng, 50 ng and 100 ng tested; ear thickness increase
Method: These figures illustrate an exemplary MNA DNBS dose response, by indicating an optimal lowest dose of hapten contained in MNAs capable of inducing effective skin acute and chronic inflammation. In particular, FIG. 51A charts MNA DNBS doses as a percentage of ear thickness increase. FIG. 51B provides histological detail of treated ear skin following the application of MNAs with the three different doses of DNBS (25 ng, 50 ng, and 100 ng).

[2] = Dye release from MNAs inserted into 4% agar test-gels; assay type: physicochemical; details: dually loaded MNA
Excerpt: To illustrate the delivery of multiple drugs with distinct release kinetics, MNAs were fabricated to delivery two distinct cargos by distinct release kinetics. Specifically, MNAs were fabricated to release the marker Toluidine Blue in an initial burst, followed by a sustained release of the marker FD&C Red40. Dyes were directly loaded in the MNA scaffold matrix (in this case CMC) of the needle tips and in some cases a second dye, encapsulated in a sustained release polymer was layer directly below. MNAs were inserted into 4% agar test-gels and removed after 1 min.
Images of dye diffusion were collected at the indicated time points (FIG. 39A). As shown in FIGS. 39A-C, FD&C Red40 (FIG. 39A) and toluidine blue (FIG. 39B), tracer dyes were tip-loaded in MNAs for immediate release. Alternatively, MNAs were fabricated with toluidine blue tip-loaded and FD&C Red40 encapsulated in a sustained release polymer (FIG. 39C). MNAs were inserted into 4% agar test-gel and removed after 1 min. Images were collected at the indicated time-points. Tip-loaded cargos were rapidly released from the MNAs and dispersed progressively in the gel (FIG. 39A and B). […] Upper panels depict images of microneedles from MNAs before application. The middle images are the imprints of the arrays 1 minute after application and MNA removal. Lower panels depicted the indicated representative magnified images at the indicated time points.

B16 melanoma = assay: Treatment of established B16 skin tumors with MNAs; details: MNA once weekly for three weeks; for survival: untreated 100% mortality
Method: B16 skin tumors were established in normal mice by injection. Visible established cutaneous tumors were treated once weekly for three weeks with MNAs containing either doxorubicin alone, Poly(I:C) alone, or doxorubicin and Poly(I:C) incorporated into the same MNA. The doxorubicin dose chosen corresponds to an MNA dose that induces apoptosis in human skin without causing necrosis. Tumor growth and survival were measured regularly for the duration of the study.

NK1R [3] = target: T1, NK1R (Homo sapiens, UniProt P25103); assay: Human mixed leukocyte cultures (MLC), skin DC as stimulators of allogeneic naive CD4 T cells, with SarSP; assay type: cell-based; details: SarSP added to MLC
T1 construct: adding SarSP to human mixed leukocyte cultures (MLC) using skin DC as stimulators of allogeneic naïve CD4 T cells; endogenous in cells; host or cells: human skin dendritic cells from skin explants, co-cultured with allogeneic T cells (MLC)
T1 sequence (P25103 whole entry): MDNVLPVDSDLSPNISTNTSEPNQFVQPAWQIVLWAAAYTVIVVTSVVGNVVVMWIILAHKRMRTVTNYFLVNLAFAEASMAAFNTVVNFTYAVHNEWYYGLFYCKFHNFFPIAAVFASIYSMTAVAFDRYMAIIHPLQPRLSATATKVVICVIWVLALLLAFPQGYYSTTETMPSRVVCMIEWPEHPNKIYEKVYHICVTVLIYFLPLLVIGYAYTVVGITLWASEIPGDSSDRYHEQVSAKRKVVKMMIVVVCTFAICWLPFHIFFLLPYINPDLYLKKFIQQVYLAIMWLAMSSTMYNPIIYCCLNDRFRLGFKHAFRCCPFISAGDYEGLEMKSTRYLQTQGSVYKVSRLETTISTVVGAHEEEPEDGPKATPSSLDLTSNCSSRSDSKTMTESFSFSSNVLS
Excerpt: FIGS. 42A and 42B show human skin DCs express functional NK1R. […] Conventional rigid MNA with pyramid geometry can suffer from limited skin penetration, and poor and unreliable cargo delivery capacity compared to the novel microneedle structures disclosed herein. For example, in some embodiments, the delivery systems disclosed herein integrate biologics into dissolvable carboxymethyl-cellulose (CMC) microneedles with obelisk geometries.

NK1R [4] = target: T2, NK1R (Mus musculus, UniProt P30548); assay: Histology of skin and skin draining lymph nodes of B6-WT mice sensitized with DNCB with or without SarSP; assay type: in vivo
T2 construct: from tissue
T2 sequence (P30548 whole entry): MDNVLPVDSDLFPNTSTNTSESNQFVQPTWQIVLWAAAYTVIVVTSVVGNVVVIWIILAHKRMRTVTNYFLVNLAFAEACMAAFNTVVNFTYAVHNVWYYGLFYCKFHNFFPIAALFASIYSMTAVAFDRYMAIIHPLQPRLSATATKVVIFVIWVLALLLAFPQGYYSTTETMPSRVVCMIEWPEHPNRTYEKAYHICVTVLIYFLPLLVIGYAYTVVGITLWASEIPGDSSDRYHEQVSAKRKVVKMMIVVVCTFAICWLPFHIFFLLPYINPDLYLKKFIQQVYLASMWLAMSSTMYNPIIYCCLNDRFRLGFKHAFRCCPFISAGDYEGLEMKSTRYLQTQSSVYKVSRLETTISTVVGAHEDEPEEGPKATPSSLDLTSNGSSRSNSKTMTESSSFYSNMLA
Excerpt: (A & C: H and E, 200×; Insets, 1,000×; B & D: TB, 200×; Insets 1,000×; NT refers to non-treated mice.)
The effect of different treatments in B6-WT mice was compared with n=6/experimental group.

NK1R [5] = target: T2, NK1R; assay: DTH reaction in mice sensitized with DNCB with NK1R agonist SarSP; assay type: in vivo; details: C57BL/6 (B6) mice sensitized with DNCB in the presence of SarSP (10^−9 M)
Excerpt: The effect of different treatments in B6-WT mice was compared with n=6/experimental group. […] The inflammatory infiltrate was composed of leukocytes including polimorphonuclear neutrophils (PMN) and eosinophils as shown in the inset of FIG. 45A.
Means±1SD of 6 mice/experimental group are illustrated, with three independent experiments performed.

[6] = system: OVA-specific CTL activity; assay: OVA-specific CTL activity in vivo after CMC-microneedle array immunization; details: mice immunized on ears with pyramidal arrays, boosted one week later

Molecule: O=P1(N(CCCl)CCCl)NCCCO1 (stereo not shown) [Cytoxan®, cyclophosphamide]
- apoptosis of epidermal cells (TUNEL) (epidermal cells): extensive apoptosis of epidermal cells

Molecule: O=[N+]([O-])c1ccc(S(=O)(=O)O)c([N+](=O)[O-])c1 [DNBS, 2,4-Dinitrobenzenesulfonic acid]
- optimal, lowest dose inducing skin acute and chronic inflammation [1]: 50 ng

Molecule: COc1cc(S(=O)(=O)[O-])c(C)cc1N=Nc1c(O)ccc2cc(S(=O)(=O)[O-])ccc12.[Na+].[Na+] [FD&C Red40]
- release of encapsulated dye ([2]; dye encapsulated in sustained release polymer): released slowly over an extended time period
- period of release from depot ([2]; dye in underlying layer of sustained release polymer): 10 days

Molecule: Cc1cc2nc3ccc(N(C)C)cc3[s+]c2cc1N.[Cl-] [Toluidine Blue]
- release of tip-loaded dye ([2]; dye in CMC in the needle tip): released in an initial burst

Molecule: COc1cccc2c1C(=O)c1c(O)c3c(c(O)c1C2=O)C[C@@](O)(C(=O)CO)C[C@@H]3O[C@H]1C[C@H](N)[C@H](O)[C@H](C)O1 [doxorubicin]
- tumor growth (B16 melanoma): slowed tumor growth
- survival (B16 melanoma): 30%

Molecule: Poly(I:C)
- tumor growth (B16 melanoma): slowed tumor growth
- survival (B16 melanoma): 50%

Molecule: Sar^9 Met(O2)^11—SP [SarSP]
- IFN-γ secretion (NK1R [3]): significantly augmented
- Tcell proliferation (NK1R [3]): significantly augmented
- MC activation and degranulation in skin (NK1R [4]; B6-WT mice): triggered MC activation and degranulation
- inflammatory response in skin (NK1R [4]; agent administered alone, B6-WT mice): did not induce inflammatory response
- inflammatory infiltrate in skin draining lymph node (NK1R [4]; co-administration with DNCB): significantly increases the inflammatory infiltrate
- inflammatory response in skin (NK1R [4]; co-administration with DNCB, B6-WT mice): significantly increased the number of inflammatory cells; also recorded: dramatically increased the magnitude of the inflammatory response and tissue damage
- number of MC in draining lymph nodes (NK1R [4]; mouse, in vivo): induced an increased number of MC
- DTH reactions (NK1R [5]): significantly increased DTH reactions

Molecule: particulate OVA: particulate ovalbumin, model antigen, in CMC microneedle arrays
- OVA-specific CTL activity in vivo [6]: Significant OVA-specific CTL activity

Molecule: soluble OVA: soluble ovalbumin, model antigen, in CMC microneedle arrays
- OVA-specific CTL activity in vivo [6]: Significant OVA-specific CTL activity
